The values that follow come from US9974778B2, “Substituted pyridinones as MGAT2 inhibitors” (BRISTOL-MYERS SQUIBB COMPANY, priority 2014, dated 2018).

In this assay the target is T1, Human MGAT-2 (Homo sapiens, UniProt Q3SYC2).
T1 construct: made in house; host or cells: Sf9 cells (membrane preparation)
Briefly: MGAT LCMS Assay. The assay is classed as biochemical. The settings on record: human MGAT2 membranes expressed in Sf9 cells; 100 μM 2-oleoylglycerol, 15 μM oleoyl-coenzyme A; read-out: h-MGAT LCMS IC50. Summed up: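 Robotic enzyme reaction shaken 10 min, quenched with ice-cold methanol containing 1 μg/mL 1,2-distearoyl-rac-glycerol internal standard. Diolein product measured by LC/MS (C8 column, 65° C, APCI(+) triple quad). IC50 derived from diolein/internal standard peak area ratio.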

T1 sequence (Q3SYC2 whole entry): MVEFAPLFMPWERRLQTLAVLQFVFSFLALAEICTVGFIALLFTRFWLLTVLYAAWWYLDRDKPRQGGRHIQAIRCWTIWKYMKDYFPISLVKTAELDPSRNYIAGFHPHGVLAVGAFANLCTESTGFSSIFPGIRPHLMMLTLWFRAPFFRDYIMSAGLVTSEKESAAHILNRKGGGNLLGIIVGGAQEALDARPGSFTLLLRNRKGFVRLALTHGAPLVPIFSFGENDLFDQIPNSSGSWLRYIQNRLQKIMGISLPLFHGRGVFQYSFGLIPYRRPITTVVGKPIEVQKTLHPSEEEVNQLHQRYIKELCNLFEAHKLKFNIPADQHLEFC

Regarding `CCOc1ccc(NC(=O)c2c(-c3ccc(C)cc3)cc(-c3ccc(OCCCC(F)(F)F)cc3F)[nH]c2=O)cc1` [Example 114, N-(4-Ethoxyphenyl)-6-(2-fluoro-4-(4,4,4-trifluorobutoxy)phenyl)-2-oxo-4-(p-tolyl)-1,2-dihydropyridine-3-carboxamide], the IC50 (in general, the point on the concentration scale where inhibition reaches its midpoint) amounted to 14 nM.

With `CCc1ccc(-c2cc(-c3ccc(OCCCC(F)(F)F)cc3F)[nH]c(=O)c2C(=O)Nc2ccc(OC(F)(F)F)cc2)s1` [Example 116, 4-(5-Ethylthiophen-2-yl)-6-(2-fluoro-4-(4,4,4-trifluorobutoxy)phenyl)-2-oxo-N-(4-(trifluoromethoxy)phenyl)-1,2-dihydropyridine-3-carboxamide], the IC50 turned out to be 17 nM.

In the case of `Cc1ccc(-c2c(F)c(-c3ccc(OCCCCCC(F)(F)F)cc3)[nH]c(=O)c2C(=O)NS(C)(=O)=O)cc1` [Example 117, 5-Fluoro-N-(methylsulfonyl)-2-oxo-4-(p-tolyl)-6-(4-((6,6,6-trifluorohexyl)oxy)phenyl)-1,2-dihydropyridine-3-carboxamide], the IC50 is 29 nM.

Consider `O=C(Nc1ccc(OC(F)(F)F)cc1)c1c(-c2ccn(CC3CC3)n2)cc(-c2ccc(OCCCCCC(F)(F)F)cc2F)[nH]c1=O` [Example 118, 4-(1-(Cyclopropylmethyl)-1H-pyrazol-3-yl)-6-(2-fluoro-4-((6,6,6-trifluorohexyl)oxy)phenyl)-2-oxo-N-(4-(trifluoromethoxy)phenyl)-1,2-dihydropyridine-3-carboxamide], for which the IC50 is 19 nM.

As for `CCOc1ccc(NC(=O)c2c(-c3ccn(CC)n3)cc(-c3ccc(OCCCC(F)(F)F)cc3F)[nH]c2=O)cc1` [Example 119, N-(4-Ethoxyphenyl)-4-(1-ethyl-1H-pyrazol-3-yl)-6-(2-fluoro-4-(4,4,4-trifluorobutoxy)phenyl)-2-oxo-1,2-dihydropyridine-3-carboxamide], the half-inhibitory concentration (IC50) was determined as 10 nM.

For the compound `CCn1ccc(-c2cc(-c3ccc(OCCCC(F)(F)F)cc3F)[nH]c(=O)c2C(=O)Nc2ccc(OC(F)(F)F)cc2)n1` [Example 120, 4-(1-Ethyl-1H-pyrazol-3-yl)-6-(2-fluoro-4-(4,4,4-trifluorobutoxy)phenyl)-2-oxo-N-(4-(trifluoromethoxy)phenyl)-1,2-dihydropyridine-3-carboxamide], the IC50 turned out to be 45 nM.

As for `CCc1ccc(-c2cc(-c3ccc(OCCCC(F)(F)F)cc3)[nH]c(=O)c2C(=O)NS(=O)(=O)C2CC2)s1` [Example 121], the IC50 stood at 11 nM.

For `Cc1ccc(-c2cc(-c3ccc(OCCCC(F)(F)F)cc3F)[nH]c(=O)c2C(=O)Nc2ccc(OC(F)(F)F)cc2)cc1` [Example 122, 6-(2-Fluoro-4-(4,4,4-trifluorobutoxy)phenyl)-2-oxo-4-(p-tolyl)-N-(4-(trifluorormethoxy)phenyl)-1,2-dihydropyridine-3-carboxamide], the IC50 was 27 nM.

Consider `O=c1[nH]c(-c2ccc(OCCCCCC(F)(F)F)cc2F)cc(-c2ccc(C3CC3)cc2)c1-c1nnn[nH]1` [Example 123, 4-(4-Cyclopropylphenyl)-6-(2-fluoro-4-((6,6,6-trifluorohexyl)oxy)phenyl)-3-(1H-tetrazol-5-yl)pyridin-2(1H)-one], for which the IC50 was found to be 11 nM.

Consider `CCOc1cc(OCCCCCC(F)(F)F)ccc1-c1cc(-c2ccc(C3CC3)cc2)c(-c2nnn[nH]2)c(=O)[nH]1` [Example 124, 4-(4-Cyclopropylphenyl)-6-(2-ethoxy-4-((6,6,6-trifIuorohexyl)oxy)phenyl)-3-(1H-tetrazol-5-yl)pyridin-2(1H)-one], for which the IC50 came to 129 nM.

As to `O=c1[nH]c(-c2ccc(OCCCC(F)(F)F)cc2F)cc(-c2ncc(C3CC3)s2)c1-c1nnn[nH]1` [Example 125, 4-(5-Cyclopropylthiazol-2-yl)-6-(2-fluoro-4-(4,4,4-trifluorobutoxy)phenyl)-3-(1H-tetrazol-5-yl)pyridin-2(1H)-one], the IC50 is 2 nM.
